This is an account of results in patent publication US4994485A, “Thio compounds having fungicidal activity” (Duphar International Research B.V., priority 1986, dated 1991).

A value given as a limit tells only on which side of the number the result lay.

The test system of one test is Pyrenophora graminea. Kind of test: In vitro test on activity against Pyrenophora graminea. The test is classed as cell-based. The following applies: 3 ppm, 48 hours, 20° C., read-out: % growth inhibition of the fungus. Here is the method:
In vitro test on activity against Pyrenophora graminea.
(§1) The compound to be tested is processed in a culture medium consisting of 1% by weight of glucose, 0.2% by weight of a yeast extract (marmite), 0.5% by weight of a protein (pepton), 2.5% by weight of agar-agar, and 95.8% by weight of water, in petri dishes in concentrations of 3 and 10 ppm. The petri dishes are inoculated with the plant-pathogenic fungus Pyrenophora graminea and then kept at a temperature of 20° C. After 48 hours the growth-inhibiting activity of the compounds is determined visually. For comparison, the known substance (b) (see EXAMPLE XV) is also tested.
One may read the inhibition as how much of the control response was suppressed. Take `CC(=O)c1sc([S+](C)[O-])c(C#N)c1-c1ccc(Cl)cc1` (stereo not shown) [(6), 2-methylsulphinyl 3-cyano-4-(4-chlorophenyl)-5-acetylthiophene]: the inhibition at 3 ppm turned out to be 54%.

The same test, now with this note: 10 ppm, 48 hours, 20° C., read-out: % growth inhibition of the fungus.
Take `CC(=O)c1sc([S+](C)[O-])c(C#N)c1-c1ccc(Cl)cc1` (stereo not shown) [(6), 2-methylsulphinyl 3-cyano-4-(4-chlorophenyl)-5-acetylthiophene]: the inhibition at 10 ppm is 77%.
The same measure, in the same setting: the result for `CC[S+]([O-])c1sc(C(=O)c2ccc(Cl)cc2)c(N)c1C#N` (stereo not shown) [(66), 2 ethylsulphinyl-3-cyano-4-amino-5-(4-chlorobenzoyl)thiophene] reads 84%.
The same measure, in the same setting: the result for `N#Cc1sc([S+]([O-])Cc2ccccc2)c(C#N)c1Cl` (stereo not shown) [(78), 2-benzylsulphinyl-3,5-dicyano-4-chlorothiophene] reads 86%; that for `CCCC[S+]([O-])c1sc(C#N)c(Br)c1C#N` (stereo not shown) [(79), 2-n-butylsulphinyl-3,5-dicyano-4-bromothiophene], 80%.
Take `N#Cc1sc([S+]([O-])c2ccccc2)c(C#N)c1Cl` (stereo not shown) [(82), 2 phenylsulphinyl-3,5-dicyano-4-chlorothiophene]: the inhibition at 10 ppm worked out at 80%.
Regarding `CC[S+]([O-])c1sc(C#N)c(Oc2ccccc2)c1C#N` (stereo not shown) [(94), 2-ethylsulphinyl-3,5-dicyano-4-phenoxythiophene], the inhibition at 10 ppm came to 70%.

The subject of a further test is Fusarium culmorum. In words: In vitro test on activity against Fusarium culmorum. The format is cell-based. The following applies: read-out: growth inhibition of the fungus.
As for `N#Cc1cc(C#N)c([S+]([O-])c2ccccc2)s1` (stereo not shown) [(32), 2-phenylsulphinyl-3,5-dicyanothiophene], the inhibition at 30 ppm was at least 75%.
Regarding `CCC[S+]([O-])c1sc(C#N)cc1C#N` (stereo not shown) [(40), 2-n-propylsulphinyl 3,5-dicyanothiophene], the inhibition at 30 ppm is at least 75%.
Same read-out and setting: under `CCCC[S+]([O-])c1sc(C#N)c(OC)c1C#N` (stereo not shown) [(41), 2-n-butylsulphinyl-3,5-dicyano 4-methoxythiophene] stands at least 75%.
Same read-out and setting: under `N#Cc1cc(C#N)c(S(=O)(=O)c2ccccc2)s1` [(45), 2-phenylsulphonyl-3,5-dicyanothiophene] stands at least 75%; under `CCCC[S+]([O-])c1sc(C(C)=O)c(N)c1C#N` (stereo not shown) [(58), 2-n-butylsulphinyl-3 cyano-4-amino-5-acetylthiophene], at least 75%.
In the case of `CCC[S+]([O-])c1sc(C(=O)c2ccccc2)c(N)c1C#N` (stereo not shown) [(67), 2-n-propylsulphinyl-3-cyano-4-amino-5-benzoylthiophene], the inhibition at 30 ppm was at least 75%.
On the same count and under the same terms, under `COc1c(C(=O)c2ccccc2)sc([S+](C)[O-])c1C#N` (stereo not shown) [(74), 2-methylsulphinyl-3-cyano-4-methoxy-5-benzoylthiophene] stands at least 75%; under `N#Cc1sc([S+]([O-])Cc2ccccc2)c(C#N)c1Cl` (stereo not shown) [(78), 2-benzylsulphinyl-3,5-dicyano-4-chlorothiophene], at least 75%; under `CCCC[S+]([O-])c1sc(C#N)c(Br)c1C#N` (stereo not shown) [(79), 2-n-butylsulphinyl-3,5-dicyano-4-bromothiophene], at least 75%.
Consider `N#Cc1sc([S+]([O-])c2ccccc2)c(C#N)c1Cl` (stereo not shown) [(82), 2 phenylsulphinyl-3,5-dicyano-4-chlorothiophene], for which the inhibition at 30 ppm was at least 75%.
On the same count and under the same terms, the result for `CCCCS(=O)(=O)c1sc(C#N)c(Br)c1C#N` [(89), 2-n-butylsulphonyl 3,5-dicyano-4-bromothiophene] reads at least 75%.
Same read-out and setting: under `CC[S+]([O-])c1sc(C(=O)c2ccccc2)c(Cl)c1C#N` (stereo not shown) [(92), 2-ethylsulphinyl-3-cyano-4-chloro-5-benzoylthiophene] stands at least 75%.

The next test relates to Leptosphaeria nodorum. Kind of test: In vitro test on activity against Leptosphaeria nodorum. The test is classed as cell-based. The following applies: Parastagonospora nodorum, read-out: growth inhibition of the fungus. Here is the method:
as §1
Compounds according to the invention are tested on i Leptosphaeria nodorum in the same manner as described in EXAMPLE XIX.
As to `N#Cc1cc(C#N)c([S+]([O-])c2ccccc2)s1` (stereo not shown) [(32), 2-phenylsulphinyl-3,5-dicyanothiophene], the inhibition at 30 ppm was at least 85%.
Take `CCC[S+]([O-])c1sc(C#N)cc1C#N` (stereo not shown) [(40), 2-n-propylsulphinyl 3,5-dicyanothiophene]: the inhibition at 30 ppm was at least 85%.
As to `CCCC[S+]([O-])c1sc(C#N)c(OC)c1C#N` (stereo not shown) [(41), 2-n-butylsulphinyl-3,5-dicyano 4-methoxythiophene], the inhibition at 30 ppm is at least 85%.
On the same count and under the same terms, the result for `N#Cc1cc(C#N)c(S(=O)(=O)c2ccccc2)s1` [(45), 2-phenylsulphonyl-3,5-dicyanothiophene] reads at least 85%; that for `CCCC[S+]([O-])c1sc(C(C)=O)c(N)c1C#N` (stereo not shown) [(58), 2-n-butylsulphinyl-3 cyano-4-amino-5-acetylthiophene], at least 85%.
On the same count and under the same terms, the result for `CCC[S+]([O-])c1sc(C(=O)c2ccccc2)c(N)c1C#N` (stereo not shown) [(67), 2-n-propylsulphinyl-3-cyano-4-amino-5-benzoylthiophene] reads at least 85%.
On the same count and under the same terms, under `COc1c(C(=O)c2ccccc2)sc([S+](C)[O-])c1C#N` (stereo not shown) [(74), 2-methylsulphinyl-3-cyano-4-methoxy-5-benzoylthiophene] stands at least 85%; under `CCCCS(=O)(=O)c1sc(C#N)c(Br)c1C#N` [(89), 2-n-butylsulphonyl 3,5-dicyano-4-bromothiophene], at least 85%.
For `CC[S+]([O-])c1sc(C(=O)c2ccccc2)c(Cl)c1C#N` (stereo not shown) [(92), 2-ethylsulphinyl-3-cyano-4-chloro-5-benzoylthiophene], the inhibition at 30 ppm was at least 85%.
Same read-out and setting: under `CC[S+]([O-])c1sc(C#N)c(Oc2ccccc2)c1C#N` (stereo not shown) [(94), 2-ethylsulphinyl-3,5-dicyano-4-phenoxythiophene] stands at least 85%.

A further test relates to Pythium splendens. Kind of test: In vitro test on activity against Pythium splendens. The test is classed as cell-based. The following applies: Globisporangium splendens, read-out: growth inhibition of the fungus.
With `CC(=O)c1sc([S+](C)[O-])c(C#N)c1-c1ccc(Cl)cc1` (stereo not shown) [(6), 2-methylsulphinyl 3-cyano-4-(4-chlorophenyl)-5-acetylthiophene], the inhibition at 10 ppm was at least 95%.
Turning to `N#Cc1cc(C#N)c([S+]([O-])c2ccccc2)s1` (stereo not shown) [(32), 2-phenylsulphinyl-3,5-dicyanothiophene], the inhibition at 10 ppm is at least 95%.
The same measure, in the same setting: under `CCC[S+]([O-])c1sc(C#N)cc1C#N` (stereo not shown) [(40), 2-n-propylsulphinyl 3,5-dicyanothiophene] stands at least 95%; under `CCCC[S+]([O-])c1sc(C#N)c(OC)c1C#N` (stereo not shown) [(41), 2-n-butylsulphinyl-3,5-dicyano 4-methoxythiophene], at least 95%; under `N#Cc1cc(C#N)c(S(=O)(=O)c2ccccc2)s1` [(45), 2-phenylsulphonyl-3,5-dicyanothiophene], at least 95%.
The same measure, in the same setting: the result for `CCCC[S+]([O-])c1sc(C(C)=O)c(N)c1C#N` (stereo not shown) [(58), 2-n-butylsulphinyl-3 cyano-4-amino-5-acetylthiophene] reads at least 95%.
Same read-out and setting: under `CC[S+]([O-])c1sc(C(=O)c2ccc(Cl)cc2)c(N)c1C#N` (stereo not shown) [(66), 2 ethylsulphinyl-3-cyano-4-amino-5-(4-chlorobenzoyl)thiophene] stands at least 95%; under `CCC[S+]([O-])c1sc(C(=O)c2ccccc2)c(N)c1C#N` (stereo not shown) [(67), 2-n-propylsulphinyl-3-cyano-4-amino-5-benzoylthiophene], at least 95%.
As to `COc1c(C(=O)c2ccccc2)sc([S+](C)[O-])c1C#N` (stereo not shown) [(74), 2-methylsulphinyl-3-cyano-4-methoxy-5-benzoylthiophene], the inhibition at 10 ppm is at least 95%.
On the same count and under the same terms, under `N#Cc1sc([S+]([O-])Cc2ccccc2)c(C#N)c1Cl` (stereo not shown) [(78), 2-benzylsulphinyl-3,5-dicyano-4-chlorothiophene] stands at least 95%.
The same measure, in the same setting: the result for `CCCC[S+]([O-])c1sc(C#N)c(Br)c1C#N` (stereo not shown) [(79), 2-n-butylsulphinyl-3,5-dicyano-4-bromothiophene] reads at least 95%.
Same read-out and setting: under `N#Cc1sc([S+]([O-])c2ccccc2)c(C#N)c1Cl` (stereo not shown) [(82), 2 phenylsulphinyl-3,5-dicyano-4-chlorothiophene] stands at least 95%; under `CCCCS(=O)(=O)c1sc(C#N)c(Br)c1C#N` [(89), 2-n-butylsulphonyl 3,5-dicyano-4-bromothiophene], at least 95%; under `CC[S+]([O-])c1sc(C#N)c(Oc2ccccc2)c1C#N` (stereo not shown) [(94), 2-ethylsulphinyl-3,5-dicyano-4-phenoxythiophene], at least 95%.
